The text below walks through data of patent EP0028689A1, “Antimycotic agents containing acylated triazolyl-gamma-fluoropinacolyl derivatives, and their preparation” (BAYER AG, priority 1979, dated 1981).

SMILES strings stand for the structures.

This assay relates to Candida. Put plainly: Antimicrobial in-vivo activity (oral) in mouse candidosis. The following applies: mice infected i.v. with Candida cells; 100 mg/kg oral one hour before and seven hours after infection; survivors on day 6 p.i.

Protocol: Versuchsbeschreibung: • Mäuse vom Typ SPF-CF1 wurden intravenös mit 1-2 x 10 logaritmisch wachsenden Candida-Zellen, die in physiologischer Kochsalzlösung suspendiert waren, infiziert. Eine Stunde vor und sieben Stunden nach der Infektion wurden die Tiere mit jeweils 100 mg/kg Körpergewicht der Präparate oral behandelt.
+++++ = sehr gute Wirkung = ≥ 90% Überlebende am 6.Tag p.i. ++++ = gute Wirkung = ≥30% Überlebende am 6.Tag p.i. +++ = Wirkung = ≥60% Überlebende am 6.Tag p.i. ++ = schwache Wirkung = ≥40% Überlebende am 6.Tag p.i. + = Spur Wirkung k.W.= keine Wirkung

Turning to `CC(=O)OC(C(Oc1ccc(Cl)cc1C)n1cncn1)C(C)(C)C` (stereo not shown), the Wirkung result was “k.W”.
